Where two headings read alike, the source gives them in different places. Non-standard residues stand in square brackets, D forms with d. Residues, ends and D or L forms follow the SMILES beside them. PEG12 = NCCOCCOCCOCCOCCOCCOCCOCCOCCOCCOCCOCCOCCC(=O)O; PEG6 = NCCOCCOCCOCCOCCOCCOCCC(=O)O
Experiments:
A549 cells [1] = test: Cellular uptake study of mRNA (flow cytometry and confocal microscopy); assay type: cell-based, human; conditions: 10:1 ratio (w/w), cyanine-5 labelled mRNA, 4 h post-transfection, flow cytometry
Protocol: The cellular uptake of the mRNA was studied by flow cytometry and confocal microscopy. For the flow cytometry study, A549 cells were seeded in 24-well plates at a density of 0.5×10^5 cells per well one day before the experiment. The cells were transfected with naked mRNA, KL4/mRNA and PEG12KL4/mRNA complexes at 10:1 ratio (w/w) in OptiMEM I reduced serum medium containing 1 μg of cyanine-5 labelled EGFP mRNA per well. After 4 h of incubation, the cells were washed and trypsinized. Cells from three separate wells of the same treatment were combined and suspended in culture medium. The extracellular florescent signal was quenched with 0.04% (w/v) trypan blue solution. After 2 min, the cells were washed, resuspended in 300 μL of PBS and sieved with a sterile 40 μm cell strainer (BD Biosciences, CA, USA). The fluorescence intensity was analyzed by flow cytometry (BD FACSCantoII Analyzer, BD Biosciences, CA, USA). At least 1×10^4 single cells were analyzed for each sample. For the confocal study, A549 cells were seeded in a 35 mm Mattek glass bottom culture dish (Mattek Corp. Ashland, MA, USA) at a density of 1×10^5 cells per well one day before imaging. Naked mRNA, KL4/mRNA and PEG12KL4/mRNA complexes at 10:1 ratio (w/w) were prepared in Opti-MEM I reduced serum medium with 2 μg of cyanine-5 labelled mRNA per dish. […]

[2] = Solubility of peptides in water; assay type: physicochemical
A549 cells [3] = test: Cellular uptake of siRNA by flow cytometry on A549 cells; assay type: cell-based, human; conditions: A549, 10:1 ratio, fluorescently labelled siRNA, 4 h
Protocol: Flow cytometry was used to investigate the cellular uptake of peptide/siRNA complexes. A549 cells and Calu-3 cells were seeded in six-well plates at a density of 2.5×10^5 cells and 4×10^5 cells per well, respectively, one day before the experiment. The cells were transfected with peptide/siRNA complexes at 10:1 ratio (w/w) containing fluorescently labelled siRNA (150 nM) in Opti-MEM I reduced serum medium. The transfection medium was removed after 4 h of incubation, and the cells were washed with PBS once. The cells were trypsinized by 0.25% (w/v) trypsin-EDTA and suspended in culture medium. The extracellular fluorescence signal was quenched with 0.04% (w/v) trypan blue solution. After 2 min of incubation, the cells were washed with PBS thrice. The cells were resuspended in 500 μL of PBS and sieved with a sterile 40 μm cell strainer (BD Biosciences, CA, USA). The fluorescence intensity was analyzed by flow cytometry with PE/PI laser (585/42 nm) (BD FACSCantoII Analyzer, BD Biosciences, CA, USA). At least 10,000 single cells were analyzed for each sample.

A549 cells [4] = test: GAPDH siRNA transfection on A549 cells (Western blot); assay type: cell-based, human; conditions: for Comparison within the same peptide prepared at different peptide to siRNA ratios: A549, one-way ANOVA, Tukey, n.s. not significant, * p<0.05, ** p<0.01, *** p<0.001; for inhibition of GAPDH protein: A549, 25 nM siRNA, 10:1 ratio (w/w); for siRNA transfection efficiency among the four peptides at different amounts of siRNA: A549, 10:1 ratio, 6 to 100 nM siRNA
Protocol: A549 cells were seeded in 6-well plates at a density of 1.5×10^5 cells per well one day before transfection. The cells were transfected with peptide/siRNA complexes containing 50 pmol of GAPDH siRNA or negative control siRNA per well (50 nM). The complexes were prepared in OptiMEM I reduced serum medium at 10:1, 15:1 and 20:1 ratios (w/w). Lipofectamine 2000 was used as control. The complexes were added to the cells and incubated for 4 h at 5% CO2, 37° C. before being washed with PBS. The transfection medium was removed and replaced with serum supplemented cell culture medium. At 72 h post-transfection, the cells were washed and lysed with cell lysis buffer. Western blotting assay was performed to analyze the level of GAPDH protein. The GAPDH expression was analyzed by densitometry of Western Blots using Image J software. The remaining GAPDH expression was the density of the GAPDH band of positive control (normalized with beta-actin of the corresponding sample) divided by the GAPDH band of negative control (normalized with the beta actin band of the corresponding sample).
(§1) A549 cells, BEAS-2B and Calu-3 cells were seeded in six-well plates at a density of 1.6×10^5 cells per well, 2×10^5 cells per well and 3×10^5 cells per well, respectively, one to two days before transfection. The cells were transfected with peptide/siRNA complexes at 5:1 to 20:1 ratio (w/w) containing GAPDH siRNA or negative control siRNA (6 to 100 nM) in OptiMEM I reduced serum medium. Lipofectamine 2000 was used for comparison. After 5 h of incubation, the cells were washed and replaced with serum supplemented cell culture medium. At 72 h post-transfection, the cells were washed and lysed with cell lysis buffer. Western blotting assay was performed to analyze the level of GAPDH protein as previously described. The GAPDH expression was analyzed by densitometry of Western blots using ImageJ software (Version 1.52). The GAPDH expression was normalized with the expression of […]-actin of the corresponding sample. The remaining GAPDH expression was the normalized GAPDH expression of positive control divided by the normalized GAPDH expression of negative control.

[5] = Charge ratio of peptide to siRNA at 10:1 weight ratio
Source text: This is partly because the uncharged PEG chains reduced the effective charge ratio between cationic KL4 and siRNA [77]. The charge ratios of KL4, PEG6KL4, PEG12KL4 and PEG24KL4 to siRNA at 10:1 weight ratio are 6.1 to 1, 5.5 to 1, 4.9 to 1 and 4.2 to 1, respectively. […] The molecular weight of the PEG used in this study, which is below 1,200 Da, is relatively low compared with others where PEG of 2,000 to 5,000 Da was often used. Therefore, PEGylated KL4 peptide/siRNA complexes remained to be positively charged, which is suitable for cellular entry. […] In addition, PEG also provides steric hindrance between the interaction of KL4 and siRNA that weakens the binding, promoting the release of siRNA from the complexes after the addition of heparin.

[6] = Circular dichroism, temperature ramping; assay type: physicochemical; conditions: 6 to 94 °C, 5 mM Tris-HCl buffer, 0.1 mg/mL
Protocol: KL4 and PEG6KL4 peptides were dissolved in 5 mM Tris-HCl buffer at a final concentration of 0.1 mg/mL in 0.1% (v/v) DMSO. PEG12KL4 and PEG24KL4 were dissolved in 5 mM Tris-HCl buffer at a final concentration of 0.1 mg/mL without DMSO. CD spectra were acquired on a Chirascan™ Spectrometer (Applied Photophysics, Leatherhead, UK). For temperature ramping experiment, far-UV CD spectra were obtained with the peptide solution incubated from 6° C. to 94° C. Spectra were recorded from 260 to 190 nm using a 0.5 mm path length and were processed using Chirascan software where a spectrum of the peptide free solution was subtracted and Savitzky-Gorlay smoothing applied.

Calu-3 cells = test: GAPDH siRNA transfection on Calu-3 cells (Western blot); assay type: cell-based, human; conditions: one-way ANOVA, Tukey, n.s. not significant, * p<0.05, ** p<0.01, *** p<0.001
Protocol: as §1

BEAS-2B cells [7] = test: GAPDH siRNA transfection on BEAS-2B cells (Western blot); assay type: cell-based, human; conditions: for siRNA transfection efficiency: 50 nM siRNA, 72 h; for Comparison within the same peptide prepared at different peptide to siRNA ratios: one-way ANOVA, Tukey, n.s. not significant, * p<0.05, ** p<0.01, *** p<0.001
Protocol: as §1

A549 cells [8] = test: Luciferase mRNA transfection in vitro on A549 cells; assay type: cell-based, human; conditions: 24 h post-transfection
Protocol: (§2) A549 cells and BEAS-2B cells were seeded in 24-well plates at a density of 0.5×10^5 and 1×10^5 cells per well, respectively, for overnight. The KL4/mRNA and PEG12KL4/mRNA complexes formed at 5:1 to 30:1 ratio (w/w) in OptiMEM I reduced serum medium were added to the cells at 0.5 or 1 μg mRNA per well. Naked mRNA and lipoplexes (Lipofectamine 2000/mRNA complexes) were used as controls. After 4 h of incubation, the transfection medium was replaced with serum supplemented cell culture medium. At 24 h post-transfection, the cells were washed and lysed with reporter cell lysis buffer. The luciferase expression was detected using the luciferase assay system according to the manufacturer's protocol. The luminescence was measured with luminometer (SpectraMax L Microplate Reader, Molecular devices, CA, USA) and the protein concentrations of the cell lysates were quantified by Bradford protein assay. The results were expressed as relative light unit (RLU) per mg of total protein. To study the transfection efficiency of PEG12KL4/mRNA in SD and SFD powder formulations, the powders were reconstituted before adding to the cells. The luciferase expression was examined at 24 h post-transfection as described above.

BEAS-2B cells [9] = test: Luciferase mRNA transfection in vitro on BEAS-2B cells; assay type: cell-based, human; conditions: 24 h post-transfection
Protocol: as §2

solubility ([2]; water) [µg/mL]	charge ratio of peptide to siRNA [5]	solubility [2] [µg/mL]	SMILES	percentage of cells with mRNA uptake (A549 cells [1])	percentage of cells with siRNA uptake (A549 cells [3])	Comparison within the same peptide prepared at different peptide to siRNA ratios (A549 cells [4])	secondary structure at different temperatures (far-UV CD) [6]	Comparison within the same peptide prepared at different peptide to siRNA ratios (Calu-3 cells)	siRNA transfection efficiency (BEAS-2B cells [7])	Comparison within the same peptide prepared at different peptide to siRNA ratios (BEAS-2B cells [7])	inhibition of GAPDH protein (A549 cells [4]; 72 h) [%]	siRNA transfection efficiency among the four peptides at different amounts of siRNA (A549 cells [4]; 72 h)	mRNA transfection efficiency compared with Lipofectamine 2000 (A549 cells [8])	siRNA transfection compared with KL4 (A549 cells [4]; A549, 10:1, 15:1 and 20:1 ratios, 50 pmol siRNA, 72 h, n=1 (FIG. 13))	mRNA transfection efficiency compared with Lipofectamine 2000 (BEAS-2B cells [9])
< 1000	6.1 to 1		CC(C)C[C@H](NC(=O)[C@H](CC(C)C)NC(=O)[C@H](CC(C)C)NC(=O)[C@H](CC(C)C)NC(=O)[C@H](CCCCN)NC(=O)[C@H](CC(C)C)NC(=O)[C@H](CC(C)C)NC(=O)[C@H](CC(C)C)NC(=O)[C@H](CC(C)C)NC(=O)[C@H](CCCCN)NC(=O)[C@H](CC(C)C)NC(=O)[C@H](CC(C)C)NC(=O)[C@H](CC(C)C)NC(=O)[C@H](CC(C)C)NC(=O)[C@H](CCCCN)NC(=O)[C@H](CC(C)C)NC(=O)[C@H](CC(C)C)NC(=O)[C@H](CC(C)C)NC(=O)[C@H](CC(C)C)NC(=O)[C@@H](N)CCCCN)C(=O)N[C@@H](CCCCN)C(N)=O [KL4, reference compound] (H-KLLLLKLLLLKLLLLKLLLLK-NH2; N-terminus assumed)	15%	less than 20%	n.s.	the alpha-helical structure gradually turned to a beta-sheet conformation								
	5.5 to 1	< 1000	CC(C)C[C@H](NC(=O)[C@H](CC(C)C)NC(=O)[C@H](CC(C)C)NC(=O)[C@H](CC(C)C)NC(=O)[C@H](CCCCN)NC(=O)[C@H](CC(C)C)NC(=O)[C@H](CC(C)C)NC(=O)[C@H](CC(C)C)NC(=O)[C@H](CC(C)C)NC(=O)[C@H](CCCCN)NC(=O)[C@H](CC(C)C)NC(=O)[C@H](CC(C)C)NC(=O)[C@H](CC(C)C)NC(=O)[C@H](CC(C)C)NC(=O)[C@H](CCCCN)NC(=O)[C@H](CC(C)C)NC(=O)[C@H](CC(C)C)NC(=O)[C@H](CC(C)C)NC(=O)[C@H](CC(C)C)NC(=O)[C@H](CCCCN)NC(=O)CCOCCOCCOCCOCCOCCOCCN)C(=O)N[C@@H](CCCCN)C(N)=O [PEG6KL4] (H-[PEG6]KLLLLKLLLLKLLLLKLLLLK-NH2; N-terminus assumed)			n.s.	adopted an alpha-helical structure at all tested temperatures	n.s.	significantly higher transfection efficiency compared with lipofectamine 2000	n.s.	80	most effective in transfecting siRNA			
	4.9 to 1	> 2000	CC(C)C[C@H](NC(=O)[C@H](CC(C)C)NC(=O)[C@H](CC(C)C)NC(=O)[C@H](CC(C)C)NC(=O)[C@H](CCCCN)NC(=O)[C@H](CC(C)C)NC(=O)[C@H](CC(C)C)NC(=O)[C@H](CC(C)C)NC(=O)[C@H](CC(C)C)NC(=O)[C@H](CCCCN)NC(=O)[C@H](CC(C)C)NC(=O)[C@H](CC(C)C)NC(=O)[C@H](CC(C)C)NC(=O)[C@H](CC(C)C)NC(=O)[C@H](CCCCN)NC(=O)[C@H](CC(C)C)NC(=O)[C@H](CC(C)C)NC(=O)[C@H](CC(C)C)NC(=O)[C@H](CC(C)C)NC(=O)[C@H](CCCCN)NC(=O)CCOCCOCCOCCOCCOCCOCCOCCOCCOCCOCCOCCOCCN)C(=O)N[C@@H](CCCCN)C(N)=O [PEG12KL4] (H-[PEG12]KLLLLKLLLLKLLLLKLLLLK-NH2; N-terminus assumed)	Over 60%		n.s.	more sensitive in response to temperature compared with the other peptides		significantly higher transfection efficiency compared with lipofectamine 2000	n.s.	80	most effective in transfecting siRNA	comparable to that of Lipofectamine 2000	superior to KL4 in mediating siRNA transfection at all tested ratios	comparable to that of Lipofectamine 2000

From US12589161B2, “PEGylated synthetic KL4 peptide, compositions and methods thereof” (THE UNIVERSITY OF HONG KONG, priority 2019, dated 2026)
